Experimental findings from ChEMBL document CHEMBL1201862, “PubChem BioAssay data set” (2004) are described below.

In experiment [1] the target is Glycogen synthase kinase-3 alpha (Homo sapiens, UniProt P49840). The experiment is described as follows: Inhibition of Human GSK-3 alpha Activity Measured in Biochemical System Using Microfluidics - 2063-06_Inhibitor_Dose_DryPowder_Activity. [Related pubchem assays (depositor defined):AID2709].
In experiment [2] the target is Glycogen synthase kinase-3 beta (Homo sapiens, UniProt P49841). The experiment is described as follows: Inhibition of Human GSK-3 beta Activity Measured in Biochemical System Using Microfluidics - 2063-05_Inhibitor_Dose_DryPowder_Activity. [Related pubchem assays (depositor defined):AID2709].
Experiment [3] concerns INS1. In words: protection of INS-1E cells from cytokine death, dose response, ATP luminescence, dry powder (AID 488844). Format: functional, cell-based. Conditions: Rattus norvegicus.
Experiment [4] can be described thus: inhibitors of cytokine-induced nitrite release, dose response, cell-based, Griess absorbance, INS-1E, dry powder, set 3 (AID 488870). The class given is functional. Conditions: Rattus norvegicus. A general note: Griess reagent forms a coloured azo dye with nitrite.
Experiment [5] has as its system INS1. In words: protection from cytokine-driven beta-cell apoptosis, dose response, JC-1 fluorescence, INS-1E, dry powder, set 2 (AID 488867). The class given is functional, cell-based. The conditions noted are these: Rattus norvegicus.
Experiment [6] deals with INS1. In words: protection from cytokine-induced mitochondrial depolarization, dose response, cell-based, INS-1E, JC-1 fluorescence ratio, dry powder (AID 488931). The conditions noted are these: Rattus norvegicus. The class given is functional.
Experiment [7] is described as follows: NIH-3T3 fibroblast cytotoxicity, dose response, cytotoxicity control, cell-based, fluorescence, Alamar Blue, secondary assay (AID 2327).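 Note: NIH-3T3 mouse fibroblasts cultured with fluconazole at 8 µg/mL.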 Format: functional.
For experiment [8], the system named is Streptococcus sp. 'group A'. In words: growth inhibition of control SK(-) GAS strain, dose response, counter-screen for streptokinase expression inhibitor project, luminescence, kanamycin, BacTiterGlo, confirmation (AID 1900). The class given is functional, organism-based. Background: The purpose of a counterscreen is to sort out artefacts and off-target activity.

Experiment [9] is described as follows: C. albicans growth with fluconazole, confirmation, fluorescence, retest (AID 2467). Format: functional, cell-based.
Experiment [10] concerns the target Serine/threonine-protein phosphatase (Candida dubliniensis (strain CD36 / CBS 7987 / NCPF 3949 / NRRLY-17841) (Yeast), UniProt B9W6M3). The experiment is described as follows: calcineurin pathway inhibitors in yeast reporter, dose response, S. cerevisiae, CDRE-lacZ, luminescence, secondary (AID 2388).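 Note: yeast reporter cells carrying a calcineurin-responsive lacZ construct stimulated with calcium chloride; luminescent beta-galactosidase reporter signal in whole cells rather than isolated phosphatase activity; potency for inhibition where a drop in reporter signal means calcineurin blockade.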 Format: functional, cell-based.
The next experiment has as its system Streptococcus. In words: Group A Streptococcus viability loss, dose response, counter-screen for streptokinase expression inhibitor project, luminescence, BacTiterGlo (AID 1915).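 Note: potency for reduction of bacterial viability or growth.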 The class given is functional, organism-based.
Experiment [11] addresses ATP-dependent molecular chaperone HSP82 (Candida albicans (strain WO-1) (Yeast), UniProt C4YTQ8). In words: loss of DOC-induced GRE-beta-galactosidase reporter signal, dose response, Hsp90 inhibitor project, S. cerevisiae, luminescence (AID 2400).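 Note: beta-galactosidase luminescence from glucocorticoid response element reporter as proxy for Hsp90 function; inhibitor potency where signal loss means Hsp90 inhibition.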 Format: functional, cell-based.
For the next experiment, the target named is Albumin (Bos taurus, UniProt P02769). In words: Counterscreen for inhibitors of T-cell receptor (TCR)-CD3 interaction: Fluorescence-based biochemical high throughput dose response assay to identify inhibitors of T-cell receptor (TCR)-CD3 interaction using a TAMRA-labeled BSA probe. Format: functional.
Experiment [12] relates to A-375. The experiment is described as follows: MITF: Counter assay: A375 proliferation Measured in Cell-Based System Using Plate Reader - 2084-03_Inhibitor_Dose_DryPowder_Activity. [Related pubchem assays (depositor defined):AID488944]. The class given is functional. The conditions noted are these: Homo sapiens.
Experiment [13] concerns A-375. In words: A375 melanoma cell viability reduction, dose response, counter-screen for MITF modulator project, cherry-pick samples, set 2 (AID 540335). Format: functional, cell-based. Conditions: Homo sapiens.
The target in experiment [14] is Voltage-gated inwardly rectifying potassium channel KCNH2 (Homo sapiens, UniProt Q12809). Conditions: Potency.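 Note: confirmatory quantitative high-throughput screen measuring inhibition of hERG channel activity.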

Molecules are shown by their SMILES. Values joined by “and” are separate entries in the source; they are usually repeats but may differ in a detail not shown here. Equal entries are not always repeated. Active and inactive are the calls of the source.

Sequence of Voltage-gated inwardly rectifying potassium channel KCNH2 (Q12809 whole entry): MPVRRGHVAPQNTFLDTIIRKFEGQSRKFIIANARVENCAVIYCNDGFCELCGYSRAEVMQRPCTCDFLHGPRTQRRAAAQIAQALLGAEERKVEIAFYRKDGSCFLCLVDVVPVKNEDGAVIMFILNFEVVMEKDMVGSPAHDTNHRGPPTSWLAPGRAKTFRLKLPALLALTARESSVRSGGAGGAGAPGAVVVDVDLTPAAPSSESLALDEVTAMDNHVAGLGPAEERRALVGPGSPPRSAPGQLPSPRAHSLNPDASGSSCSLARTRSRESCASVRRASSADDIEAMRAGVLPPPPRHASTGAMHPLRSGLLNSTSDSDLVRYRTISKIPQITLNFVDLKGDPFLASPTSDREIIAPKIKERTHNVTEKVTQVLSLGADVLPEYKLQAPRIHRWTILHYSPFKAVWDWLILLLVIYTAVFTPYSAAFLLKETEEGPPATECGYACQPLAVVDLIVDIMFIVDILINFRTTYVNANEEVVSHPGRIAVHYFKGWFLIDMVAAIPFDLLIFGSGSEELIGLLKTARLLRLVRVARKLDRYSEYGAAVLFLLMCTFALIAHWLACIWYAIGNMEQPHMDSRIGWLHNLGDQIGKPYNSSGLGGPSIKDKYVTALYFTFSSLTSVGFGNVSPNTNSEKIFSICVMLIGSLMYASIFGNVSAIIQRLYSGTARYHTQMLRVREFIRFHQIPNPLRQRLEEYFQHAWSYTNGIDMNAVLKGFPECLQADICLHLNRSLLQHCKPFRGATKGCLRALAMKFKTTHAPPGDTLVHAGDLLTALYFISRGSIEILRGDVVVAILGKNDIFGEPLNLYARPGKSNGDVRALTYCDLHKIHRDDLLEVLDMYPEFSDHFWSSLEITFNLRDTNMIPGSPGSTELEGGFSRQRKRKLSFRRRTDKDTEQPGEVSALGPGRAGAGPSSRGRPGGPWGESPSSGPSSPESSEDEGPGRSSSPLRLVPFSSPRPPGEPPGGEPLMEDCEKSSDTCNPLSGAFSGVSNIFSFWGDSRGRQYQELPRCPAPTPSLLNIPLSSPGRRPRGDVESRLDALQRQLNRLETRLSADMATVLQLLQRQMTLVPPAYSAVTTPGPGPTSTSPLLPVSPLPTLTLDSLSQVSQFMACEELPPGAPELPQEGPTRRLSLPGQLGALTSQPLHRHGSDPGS
Sequence of Glycogen synthase kinase-3 alpha (P49840 whole entry): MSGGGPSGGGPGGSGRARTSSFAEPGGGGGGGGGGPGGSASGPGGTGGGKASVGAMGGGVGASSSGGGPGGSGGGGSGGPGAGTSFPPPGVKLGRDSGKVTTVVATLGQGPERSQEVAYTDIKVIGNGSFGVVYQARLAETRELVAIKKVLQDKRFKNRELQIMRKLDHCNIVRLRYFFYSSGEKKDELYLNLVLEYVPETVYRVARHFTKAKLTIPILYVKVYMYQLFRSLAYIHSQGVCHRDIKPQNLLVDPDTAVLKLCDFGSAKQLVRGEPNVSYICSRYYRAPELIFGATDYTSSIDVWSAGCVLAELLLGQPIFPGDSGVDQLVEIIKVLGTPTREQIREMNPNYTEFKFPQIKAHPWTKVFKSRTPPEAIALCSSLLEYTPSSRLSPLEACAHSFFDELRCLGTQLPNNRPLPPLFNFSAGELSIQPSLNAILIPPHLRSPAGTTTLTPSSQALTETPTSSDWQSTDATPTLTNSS
Sequence of Glycogen synthase kinase-3 beta (P49841 whole entry): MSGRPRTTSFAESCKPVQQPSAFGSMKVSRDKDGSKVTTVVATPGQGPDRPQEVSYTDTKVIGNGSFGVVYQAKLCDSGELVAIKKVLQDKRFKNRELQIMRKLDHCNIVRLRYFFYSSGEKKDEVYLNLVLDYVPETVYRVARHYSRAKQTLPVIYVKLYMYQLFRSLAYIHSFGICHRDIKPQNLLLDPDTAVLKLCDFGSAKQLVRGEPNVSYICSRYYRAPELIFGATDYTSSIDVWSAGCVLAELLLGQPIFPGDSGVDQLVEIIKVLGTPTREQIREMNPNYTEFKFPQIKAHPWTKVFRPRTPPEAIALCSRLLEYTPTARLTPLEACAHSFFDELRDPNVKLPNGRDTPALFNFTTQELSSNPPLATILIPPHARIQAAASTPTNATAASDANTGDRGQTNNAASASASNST
Sequence of Albumin (P02769 whole entry): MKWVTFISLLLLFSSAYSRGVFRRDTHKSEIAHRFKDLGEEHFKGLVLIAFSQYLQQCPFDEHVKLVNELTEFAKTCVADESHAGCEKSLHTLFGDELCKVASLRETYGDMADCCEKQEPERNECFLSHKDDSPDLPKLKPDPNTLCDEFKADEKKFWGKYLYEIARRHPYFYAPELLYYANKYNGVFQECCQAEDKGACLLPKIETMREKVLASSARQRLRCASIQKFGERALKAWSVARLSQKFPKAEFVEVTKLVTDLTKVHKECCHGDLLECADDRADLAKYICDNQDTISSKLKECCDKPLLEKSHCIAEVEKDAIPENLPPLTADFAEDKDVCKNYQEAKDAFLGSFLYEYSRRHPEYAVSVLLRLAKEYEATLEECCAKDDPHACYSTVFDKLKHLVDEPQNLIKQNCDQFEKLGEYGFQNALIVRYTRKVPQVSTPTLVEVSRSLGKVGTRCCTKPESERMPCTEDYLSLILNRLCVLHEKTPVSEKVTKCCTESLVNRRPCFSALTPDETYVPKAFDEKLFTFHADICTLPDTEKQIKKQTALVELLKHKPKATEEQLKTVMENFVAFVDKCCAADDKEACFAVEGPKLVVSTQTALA
Sequence of ATP-dependent molecular chaperone HSP82 (C4YTQ8 whole entry): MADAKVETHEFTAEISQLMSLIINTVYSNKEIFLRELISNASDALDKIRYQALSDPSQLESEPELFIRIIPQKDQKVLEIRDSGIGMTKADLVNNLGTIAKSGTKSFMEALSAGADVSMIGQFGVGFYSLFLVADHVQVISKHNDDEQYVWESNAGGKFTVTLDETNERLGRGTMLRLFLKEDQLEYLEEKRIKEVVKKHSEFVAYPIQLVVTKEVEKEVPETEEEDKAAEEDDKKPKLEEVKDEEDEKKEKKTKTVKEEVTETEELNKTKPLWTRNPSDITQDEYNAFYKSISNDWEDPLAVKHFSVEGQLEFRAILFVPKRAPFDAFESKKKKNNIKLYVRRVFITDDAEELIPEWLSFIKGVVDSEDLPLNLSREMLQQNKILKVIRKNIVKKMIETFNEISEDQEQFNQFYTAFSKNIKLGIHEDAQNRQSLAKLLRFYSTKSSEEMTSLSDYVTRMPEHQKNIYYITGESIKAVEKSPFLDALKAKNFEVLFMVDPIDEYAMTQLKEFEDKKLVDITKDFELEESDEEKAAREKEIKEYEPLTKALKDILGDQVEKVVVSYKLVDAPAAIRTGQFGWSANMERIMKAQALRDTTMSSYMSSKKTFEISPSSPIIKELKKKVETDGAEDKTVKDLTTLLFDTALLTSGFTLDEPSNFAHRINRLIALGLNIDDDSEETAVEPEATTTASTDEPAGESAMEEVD
Sequence of Serine/threonine-protein phosphatase (B9W6M3 whole entry): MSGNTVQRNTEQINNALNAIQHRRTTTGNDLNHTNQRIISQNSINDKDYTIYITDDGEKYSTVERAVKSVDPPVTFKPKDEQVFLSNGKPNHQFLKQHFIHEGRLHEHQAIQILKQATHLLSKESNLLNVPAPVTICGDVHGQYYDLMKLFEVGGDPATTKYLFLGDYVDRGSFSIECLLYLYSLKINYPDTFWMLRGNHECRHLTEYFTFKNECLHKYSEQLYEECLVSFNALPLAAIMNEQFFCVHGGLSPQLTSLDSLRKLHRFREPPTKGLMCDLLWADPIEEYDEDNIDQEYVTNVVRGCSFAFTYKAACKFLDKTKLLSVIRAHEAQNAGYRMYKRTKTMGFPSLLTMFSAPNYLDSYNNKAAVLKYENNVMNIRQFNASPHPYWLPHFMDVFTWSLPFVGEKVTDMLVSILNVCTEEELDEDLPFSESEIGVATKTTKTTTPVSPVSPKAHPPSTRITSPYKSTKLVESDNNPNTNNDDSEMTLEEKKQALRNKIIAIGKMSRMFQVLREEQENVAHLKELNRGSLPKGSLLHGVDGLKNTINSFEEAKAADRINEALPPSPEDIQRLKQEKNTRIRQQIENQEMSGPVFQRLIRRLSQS

The term AC50 denotes the concentration giving half of the maximal activity seen. Turning to `O/N=C/c1cn(-c2ccccc2)nc1-c1cccnc1`, the half-maximal activity concentration (AC50) is 0.828 µM (active) in experiment [1] and 0.246 µM (active) in [2].

As for `C[C@@H]1CN([C@@H](C)CO)C(=O)c2cccc(NC(=O)Nc3cccc4ccccc34)c2O[C@H]1CN(C)S(=O)(=O)c1ccc2ncsc2c1`, the concentration at half-maximal activity (AC50) with INS1 [3] is 24.9 µM (active); in experiment [4], 34.6 µM (active); in the experiment with INS1 [5] it was 38.8 µM (active); in the experiment with INS1 [6], 176 µM (active).

Usually EC50 stands for the concentration that produces a half-maximal response. The IC50 is the concentration that inhibits the measured activity by half. For the compound `Cc1cc(C(=O)N/N=C/c2cc(Cl)cc([N+](=O)[O-])c2O)c2ccccc2n1`, the EC50 is 34.3 µM (active) in experiment [7]; 1.03 µM (active) in experiment [8]; 14.7 µM (active) in [9]; > 180 µM (inactive) in [10]; 1.51 µM (active) with Streptococcus; 17.5 µM (active) in experiment [11]. In addition, at Albumin, the IC50 is > 94.1 µM (inactive).

Turning to `C/C(=N\Nc1cc(N2CCOCC2)ncn1)c1ccccc1`, the AC50 in the experiment on A-375 [12] and in the experiment on A-375 [13] was > 35 µM (active) throughout.

On to `ClC(Cl)=C(c1ccc(Cl)cc1)c1ccc(Cl)cc1` [DICHLORODIPHENYLDICHLOROETHYLENE], for which the AC50 in experiment [14] is 15.8 µM (inconclusive) and 20 µM (inconclusive).
